# Article PMC12373846, “Hemoglobin as a pseudoperoxidase and drug target for oxidative stress-related diseases” (Signal Transduction and Targeted Therapy, 2025)
# What was measured:
# fGiD mice = assay: Immunohistochemistry of hippocampal CA1, fGiD mice; format: in vivo, mouse; settings: fGiD+KDS, 3 mg/kg/day i.p. 16 days, Fig. 4e
# purified mouse RBCs = assay: Isolated red blood cell H2O2 assay; format: cell-based; settings: 1 µM H2O2
# Experimental: RBCs were isolated following a modified version of the protocol described by Hanson et al. (2008). Whole blood was collected from male ICR mice (5–6 weeks old) via retro-orbital bleeding under isoflurane anesthesia. Blood was transferred using heparin-coated capillaries into EDTA-coated microcentrifuge tubes and centrifuged at 500 x g for 10 min. Plasma and buffy coat were removed, and the RBC pellet was washed three times with phosphate-buffered saline (PBS) containing 2% fetal bovine serum (FBS) to remove leukocytes and plasma components. The final RBC suspension was adjusted to 5 x 10^3 cells/µL, and cell concentration was verified using an automated hematology analyzer (Horiba Microsemi LC-662).
# H2O2 was quantified using the ROS-Glo H2O2 Assay kit (Promega) according to the manufacturer’s protocol. RBCs were dispensed into white 96-well plates at a final volume 70 µL per well. KDS12025 was tested at final concentrations of 0.01, 0.1, and 1 µM, and co-treated with 1 µM H2O2. The ROS-Glo substrate was added simultaneously to all wells. Plates were incubated for 10 min at 37°C. After incubation, ROS-Glo detection reagent was added directly to each well. Plates were then incubated for 20 min at room temperature. Luminescence was measured using a microplate reader (SpectraMax) according to kit settings. Relative luminescence units (RLU) were background-subtracted and normalized to the RBC+ H2O2 only control group. All conditions were tested in triplicate. Results present the combined average of two independent experiments; each performed with the same experimental layout and controls.
smiles,measurement,setting,value
"CNc1ccc(NCCc2ccccc2OC)cc1.Cl [KDS12025, N^1-(2-methoxyphenethyl)-N^4-methylbenzene-1,4-diamine hydrochloride salt]",mean GFAP intensity in the GFAP-positive area,fGiD mice,"fGcon (49.2±2.7, n=9), fGiD (82.5±3.6, n=9), fGiD+KDS (59.0±2.5, n=9) One-way ANOVA with Tukey's multiple comparisons test, F(2,24) = 33.23, p < 0.001 fGcon vs. fGiD, p < 0.01; fGcon vs. fGiD+KDS, p = 0.07; fGiD vs. fGiD+KDS12025 (0.1mpk), p = 0.01"
same,H2O2 level normalized to RBC+H2O2 only (Fig. S20t),purified mouse RBCs; 0.01 µM,37.08±7.98
same,H2O2 level normalized to RBC+H2O2 only (Fig. S20t),purified mouse RBCs; 0.1 µM,20.61±3.586
same,H2O2 level normalized to RBC+H2O2 only (Fig. S20t),purified mouse RBCs; 1 µM,7.116±4.5
